# What was measured:
# [1] = system: E-cadherin expression in HCT-8 cells; assay: Western blot of E-cadherin expression, HCT-8 cells (EntF*, alanine and D-amino acid analogs); assay type: cell-based
# Protocol: (§1) HCT-8, HT-29, and HT-116 cells were grown in DMEM medium supplied with 10% fetal bovine serum (FBS) and 1% penicillin-streptomycin. Caco-2 cells were grown in DMEM medium supplied with 10% FBS, 1% non-essential amino acid NEAA), and 1% penicillin-streptomycin. Cells were cultured at 37 °C and 5% CO2. As cells reached confluency, they were detached using 0.25% Trypsin-EDTA.
# (§2) For Western blot analyses, HCT-8 (n = 15), HCT-116 (n = 12), Caco-2 (n = 6), and HT-29 (n = 12) cells were seeded in 6-well plates at a density of 1 × 10^6 cells/well. Twenty-four hours after seeding, all cell lines were treated with 1 μM EntF* or a placebo solution. HCT-8 cells were also tested for responsiveness to 1 μM EntF* synthetic alanine-derived analogs. For antagonist activity analysis, HCT-8 cells were treated with 1 μM Nef-M1 or 1 μM EntF*A1 alone or in combination with 500 nM EntF*. After 24 h, cells were detached from the surface and lysed in RIPA buffer (Thermo Scientific). Protein concentration was determined using the modified Lowry protein assay kit (Thermo Scientific), according to the manufacturer’s instructions. Protein samples were diluted to the same concentration (4 μg/μL) with water and diluted again 1:1 using 2x Laemmli buffer. After that, samples were boiled for 5 min at 95 °C to denature proteins and centrifuged for 5 min at 16,000g; supernatants were used for Western blot analyses. Equal amounts of total protein (20 μg/lane) were separated by SDS-PAGE on an Any kD^TM gel (Bio-Rad ) and then transferred to a PVDF membrane. Before incubation with antibodies, non-specific binding sites on the membranes were blocked using 5% skimmed milk solution (1 h). TBS buffer with 0.05% Tween 20 was used for all washing steps. Membranes were incubated overnight at 4 °C with an anti-E-cadherin primary antibody (1/1000 dilution). An HRP-conjugated anti-rabbit antibody (1/2000 dilution, 1 h incubation) was used for chemiluminescent detection. Membranes were incubated with the detection substrate for 5 min and signal detection was performed using the ChemiDoc EZ imager and Image Lab software (Bio-Rad). Signal intensity was normalized against the total protein content in each lanes.
# A quantitative approach was used to evaluate the importance of each amino acid, where the Fisher’s LSD p-values of (1) multiple comparisons between EntF* and the alanine (ALA) scan and (2) multiple comparisons between different peptides of the ALA scan are combined. Subsequently, based on the combined P-score, the amino acids were classified in 5 classes using a hierarchical cluster analysis and confirmed using the Jenks natural breaks algorithm with K = 5. CombinedPscore=1-PPBSvsALAscan*PEntF*vsALAscan
# [2] = system: tumor nodules in the liver; assay: Orthotopic mouse model: histopathological evaluation of liver; assay type: in vivo, female athymic nude mice (Swiss nu/nu)
# Protocol: Six-week-old female athymic nude mice (Swiss nu/nu) were anesthetized, and a minimally invasive midline laparotomy was performed to localize the cecum. The cecum was then gently pulled out, and luciferase-transfected HCT-8/E11 cells (1 × 10^6 cells) in 20 μL serum-free DMEM medium with Matrigel (1:1) were injected into the cecal wall. Before implantation, cells were treated with EntF* (10^2 nM), Phr0662 (10^2 nM), vehicle (PBS), or TGFα positive control (0.1 μg mL^−1) solutions for 5 days. The cecum was then carefully placed back into the abdominal cavity and the surgical incision was closed with two layers of sutures with PDS 6-0. […] Once a week, mice were examined for tumor growth and metastases using bioluminescent imaging with the IVIS Lumina II (Perkin Elmer, Belgium) after i.p. injection with 200 μL luciferin (150 mg kg^−1). After 6 weeks, mice were euthanized using cervical dislocation, and the liver, diaphragm, lungs, cecum, duodenum, and peritoneum were macroscopically examined for the presence of tumor nodules. Liver and lung tissues were then fixed in formalin for 24 h and stored in 70% ethanol for maximum 3 days before embedding in paraffin. Next, a hematoxylin and eosin (H&E) staining was performed on 8 μm sections, and 3 sections per mouse were visualized using microscopy. Slides from tumor-bearing mice were analyzed by two blinded, independent investigators using the scoring system described in Additional file 5: Table S3. In case of differences, slides were scored by a third blinded, independent investigator for consensus.
# [3] = system: E-cadherin expression in HCT-116 cells; assay: Western blot of E-cadherin expression, CXCR4-negative HCT-116 cells; assay type: cell-based
# Protocol: as §1, §2
smiles,measurement,setting,value
"CC(C)C[C@@H]1NC(=O)[C@H](CO)NC(=O)[C@H](Cc2ccccc2)NC(=O)[C@H](C(C)C)NC(=O)[C@@H](NC(=O)[C@H](CCC(=O)O)NC(=O)[C@@H](NC(=O)[C@H](CC(C)C)NC(=O)[C@H](CC(N)=O)NC(=O)[C@@H](N)CO)C(C)C)CSSC[C@@H](C(=O)N[C@@H](CC(N)=O)C(=O)O)NC(=O)[C@H](CCCCN)NC(=O)[C@H](CCCCN)NC(=O)[C@H](Cc2ccccc2)NC1=O (single isomer, unassigned) [EntF*]",E-cadherin expression relative to H2O control (= 100),"[1]; D-scan, Blot 7 (replicate), Norm. Vol. relative to H2O lane = 100.0, chemiluminescence",92.1
same,E-cadherin expression relative to H2O control (= 100),"[1]; D-scan, Blot 8 (replicate), Norm. Vol. relative to H2O lane = 100.0, chemiluminescence",99.2
same,E-cadherin expression relative to H2O control (= 100),"[1]; D-scan, Blot 9 (replicate), Norm. Vol. relative to H2O lane = 100.0, chemiluminescence",67.6
same,E-cadherin expression relative to H2O control (= 100),"[1]; D-scan, Blot 10 (replicate), Norm. Vol. relative to H2O lane = 100.0, chemiluminescence",83.3
same,E-cadherin expression relative to H2O control (= 100),"[1]; D-scan, Blot 11 (replicate), Norm. Vol. relative to H2O lane = 100.0, chemiluminescence",74.5
same,E-cadherin expression relative to H2O control (= 100),"[1]; D-scan, Blot 12 (replicate), Norm. Vol. relative to H2O lane = 100.0, chemiluminescence",74.5
same,E-cadherin expression relative to H2O control (= 100),"[1]; H2O = 100.0, CXCL12 at 10µg/ml, mean of the replicates (row r47, unlabelled; SEM in row below)",85.8
same,E-cadherin expression relative to H2O control (= 100),"[1]; H2O = 100.0, CXCL12 at 10µg/ml, replicate 1 (row r35)",92.9
same,E-cadherin expression relative to H2O control (= 100),"[1]; H2O = 100.0, CXCL12 at 10µg/ml, replicate 2 (row r36)",90.1
same,E-cadherin expression relative to H2O control (= 100),"[1]; H2O = 100.0, CXCL12 at 10µg/ml, replicate 3 (row r37)",85.4
same,E-cadherin expression relative to H2O control (= 100),"[1]; H2O = 100.0, CXCL12 at 10µg/ml, replicate 4 (row r38)",88.3
same,Ala scan: Relative E-cadherin decrease,"[1]; H2O = 100.0, mean of the replicates (row r29, unlabelled; SEM in row below)",62.0
same,E-cadherin expression relative to H2O control (= 100),"[1]; H2O = 100.0, replicate 5 (row r39)",95.4
same,E-cadherin expression relative to H2O control (= 100),"[1]; H2O = 100.0, replicate 6 (row r40)",92.1
same,E-cadherin expression relative to H2O control (= 100),"[1]; H2O = 100.0, replicate 7 (row r41)",99.2
same,E-cadherin expression relative to H2O control (= 100),"[1]; H2O = 100.0, replicate 8 (row r42)",67.6
same,E-cadherin expression relative to H2O control (= 100),"[1]; H2O = 100.0, replicate 9 (row r43)",83.3
same,E-cadherin expression relative to H2O control (= 100),"[1]; H2O = 100.0, replicate 10 (row r44)",74.5
same,E-cadherin expression relative to H2O control (= 100),"[1]; H2O = 100.0, replicate 11 (row r45)",74.5
same,"Relative E-cadherin decrease in different cell lines, Average","[1]; HCT-8 cells, average (EntF* n = 15, CXCL12 n = 4)",62.0
same,number of tumor nodules in the liver compared to the vehicle,"[2]; 6 weeks of treatment, H&E histopathological score, n = 30 EntF*, n = 8 PBS",significantly higher number of tumor nodules
same,"Histology scoring LIVER, conclusion per group",[2]; per group,1
same,effect on E-cadherin expression in HCT-116 cells,"[3]; CXCR4-negative cells, 24 h, n = 12",no decrease
same,Relative E-cadherin level,"[3]; HCT-116 cells, average of n = 12",103.8

# — paper PMC9238271, “The quorum sensing peptide EntF* promotes colorectal cancer metastasis in mice: a new factor in the host-microbiome interaction” (BMC Biology, 2022)
